Measured values reported in publication PMC6382704, “LPM580098, a Novel Triple Reuptake Inhibitor of Serotonin, Noradrenaline, and Dopamine, Attenuates Neuropathic Pain” (Frontiers in Pharmacology, 2019).

Experiments:
[1] = molecular target: T1, SERT (serotonin transporter) (Homo sapiens, UniProt P31645); assay: radioligand displacement of [3H]imipramine, CHO cell membranes
T1 construct: gene SLC6A4

[2] = molecular target: T2, NET (norepinephrine transporter) (Homo sapiens, UniProt P23975); assay: radioligand displacement of [3H]nisoxetine, CHO cell membranes
T2 construct: gene SLC6A2
T2 sequence (P23975 whole entry): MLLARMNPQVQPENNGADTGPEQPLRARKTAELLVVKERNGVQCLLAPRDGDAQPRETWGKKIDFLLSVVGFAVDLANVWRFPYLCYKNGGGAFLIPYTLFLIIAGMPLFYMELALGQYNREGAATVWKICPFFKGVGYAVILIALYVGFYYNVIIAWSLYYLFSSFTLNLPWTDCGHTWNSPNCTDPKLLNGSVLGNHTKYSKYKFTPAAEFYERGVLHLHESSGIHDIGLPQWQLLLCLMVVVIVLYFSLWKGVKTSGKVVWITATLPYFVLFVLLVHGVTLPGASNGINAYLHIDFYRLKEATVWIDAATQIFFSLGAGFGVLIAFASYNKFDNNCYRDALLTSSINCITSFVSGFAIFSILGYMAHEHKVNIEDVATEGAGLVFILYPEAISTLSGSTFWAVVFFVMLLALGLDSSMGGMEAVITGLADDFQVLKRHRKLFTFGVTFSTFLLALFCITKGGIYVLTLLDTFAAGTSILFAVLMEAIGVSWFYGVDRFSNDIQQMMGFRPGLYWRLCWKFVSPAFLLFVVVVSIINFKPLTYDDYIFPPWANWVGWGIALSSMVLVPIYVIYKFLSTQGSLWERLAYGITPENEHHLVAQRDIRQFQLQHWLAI

[3] = molecular target: T3, DAT (dopamine transporter) (Homo sapiens, UniProt Q01959); assay: radioligand displacement of [3H]BTCP, CHO cell membranes
T3 construct: gene SLC6A3
T3 sequence (Q01959 whole entry): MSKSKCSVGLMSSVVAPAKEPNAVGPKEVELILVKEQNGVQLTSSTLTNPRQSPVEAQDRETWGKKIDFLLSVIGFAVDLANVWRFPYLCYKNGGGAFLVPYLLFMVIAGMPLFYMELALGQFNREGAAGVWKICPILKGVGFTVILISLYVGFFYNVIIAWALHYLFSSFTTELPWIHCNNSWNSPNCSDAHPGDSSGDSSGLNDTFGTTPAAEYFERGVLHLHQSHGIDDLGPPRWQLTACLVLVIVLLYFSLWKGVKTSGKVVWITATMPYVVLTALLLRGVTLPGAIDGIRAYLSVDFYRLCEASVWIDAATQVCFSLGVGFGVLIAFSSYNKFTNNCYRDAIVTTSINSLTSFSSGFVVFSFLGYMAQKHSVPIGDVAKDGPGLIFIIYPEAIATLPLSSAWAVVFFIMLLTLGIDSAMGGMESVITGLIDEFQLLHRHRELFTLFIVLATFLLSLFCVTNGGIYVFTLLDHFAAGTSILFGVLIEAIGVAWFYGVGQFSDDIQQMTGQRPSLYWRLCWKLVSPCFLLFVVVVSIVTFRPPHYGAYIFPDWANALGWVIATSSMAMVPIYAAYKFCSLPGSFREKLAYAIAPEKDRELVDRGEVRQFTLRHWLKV

T1 sequence (P31645 whole entry): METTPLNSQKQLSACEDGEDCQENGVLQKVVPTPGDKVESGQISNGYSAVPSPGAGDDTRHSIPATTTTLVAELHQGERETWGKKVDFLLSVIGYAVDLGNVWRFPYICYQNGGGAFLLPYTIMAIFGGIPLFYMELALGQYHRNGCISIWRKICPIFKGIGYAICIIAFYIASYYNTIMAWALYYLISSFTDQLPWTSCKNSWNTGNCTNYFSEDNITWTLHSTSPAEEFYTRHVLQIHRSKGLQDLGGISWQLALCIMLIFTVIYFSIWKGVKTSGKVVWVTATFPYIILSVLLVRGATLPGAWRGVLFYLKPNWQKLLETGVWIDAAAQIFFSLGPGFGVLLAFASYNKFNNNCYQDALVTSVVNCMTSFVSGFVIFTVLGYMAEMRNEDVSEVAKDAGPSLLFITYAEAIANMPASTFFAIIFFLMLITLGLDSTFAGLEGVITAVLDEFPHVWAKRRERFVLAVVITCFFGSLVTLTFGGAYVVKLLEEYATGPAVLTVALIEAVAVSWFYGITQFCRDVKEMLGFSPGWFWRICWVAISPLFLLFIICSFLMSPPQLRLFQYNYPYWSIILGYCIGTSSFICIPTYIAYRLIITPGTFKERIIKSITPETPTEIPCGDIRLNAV

SMILES: CN(C)CC(c1ccc(Oc2ccccc2)cc1)C1(O)CCCCC1 (stereo not drawn) [LPM580098, 1-[2-(dimethylamino)-1-(4-phenoxyphenyl)ethyl] cyclohexanol]
- inhibition at 10 µM [1]: 90.3%
- inhibition at 10 µM [2]: 45%
- inhibition at 10 µM [3]: 77.5%
